Data: ChEMBL document CHEMBL1201862, “PubChem BioAssay data set” (2004)
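Cells were grown in 96-well plates and exposed to each compound for 48 hours at five concentrations; endpoints were interpolated linearly between bracketing concentrations, or set to the highest concentration if not reached. GI50 is the concentration that inhibits growth by half.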 Active and inactive are the calls of the source. No stated cut-off is given here; in the data, active = GI50 up to about 1.1 µM and inactive = higher.

Tests used:
Test in all cases: inhibition of tumour cell growth, NCI panel, 48 h
HT-29 = test system: HT-29
HCT-116 = test system: HCT-116
SF-268 = test system: SF-268
HL-60 = test system: HL-60
MCF7 = test system: MCF7
TK-10 = test system: TK-10
HCT-15 = test system: HCT-15
NCI-H522 = test system: NCI-H522
NCI-H23 = test system: NCI-H23
MDA-MB-231 = test system: MDA-MB-231
OVCAR-5 = test system: OVCAR-5
T47D = test system: T47D
KM12 = test system: KM12
CAKI-1 = test system: CAKI-1
SK-MEL-28 = test system: SK-MEL-28
SK-OV-3 = test system: SK-OV-3
COLO 205 = test system: COLO 205
SNB-19 = test system: SNB-19
SW-620 = test system: SW-620
IGROV-1 = test system: IGROV-1
A498 = test system: A498
SK-MEL-2 = test system: SK-MEL-2
NCI-H226 = test system: NCI-H226
A549 = test system: A549
SK-MEL-5 = test system: SK-MEL-5
BT-549 = test system: BT-549
SF-539 = test system: SF-539
UACC-257 = test system: UACC-257
UACC-62 = test system: UACC-62
HOP-62 = test system: HOP-62
UO-31 = test system: UO-31
CCRF-CEM = test system: CCRF-CEM
SF-295 = test system: SF-295
SNB-75 = test system: SNB-75
M14 = test system: M14
NCI/ADR-RES = test system: NCI/ADR-RES
Malme-3M = test system: Malme-3M
SR = test system: SR
OVCAR-8 = test system: OVCAR-8
HOP-92 = test system: HOP-92
DU-145 = test system: DU-145
SN12C = test system: SN12C
786-0 = test system: 786-0
OVCAR-3 = test system: OVCAR-3
LOX IMVI = test system: LOX IMVI
MDA-MB-435 = test system: MDA-MB-435
RPMI-8226 = test system: RPMI-8226
K562 = test system: K562
Hs-578T = test system: Hs-578T
NCI-H460 = test system: NCI-H460
U-251 = test system: U-251
MOLT-4 = test system: MOLT-4
ACHN = test system: ACHN
PC-3 = test system: PC-3
RXF 393 = test system: RXF 393
OVCAR-4 = test system: OVCAR-4

Compound: CCCc1cn2c(/C=N/NC(=N)N)c(-c3ccc(Cl)c([N+](=O)[O-])c3)nc2s1
- GI50 (HT-29): 826 nM (active)
- GI50 (HCT-116): 1220 nM (inactive)
- GI50 (SF-268): 2360 nM (inactive)
- GI50 (HL-60): 1200 nM (inactive)
- GI50 (MCF7): 1940 nM (inactive)
- GI50 (TK-10): 1540 nM (inactive)
- GI50 (HCT-15): 1700 nM
- GI50 (NCI-H522): 1980 nM (inactive)
- GI50 (NCI-H23): 1740 nM (inactive)
- GI50 (MDA-MB-231): 1860 nM (inactive)
- GI50 (OVCAR-5): 1550 nM (inactive)
- GI50 (T47D): 1420 nM (inactive)
- GI50 (KM12): 1330 nM (inactive)
- GI50 (CAKI-1): 1820 nM (inactive)
- GI50 (SK-MEL-28): 1640 nM (inactive)
- GI50 (SK-OV-3): 1500 nM (inactive)
- GI50 (COLO 205): 1510 nM (inactive)
- GI50 (SNB-19): 1500 nM (inactive)
- GI50 (SW-620): 1070 nM (active)
- GI50 (IGROV-1): 1890 nM (inactive)
- GI50 (A498): 1660 nM (inactive)
- GI50 (SK-MEL-2): 1710 nM (inactive)
- GI50 (NCI-H226): 1990 nM (inactive)
- GI50 (A549): 1730 nM (inactive)
- GI50 (SK-MEL-5): 1670 nM (inactive)
- GI50 (BT-549): 1680 nM (inactive)
- GI50 (SF-539): 1880 nM (inactive)
- GI50 (UACC-257): 1610 nM (inactive)
- GI50 (UACC-62): 1950 nM (inactive)
- GI50 (HOP-62): 1880 nM (inactive)
- GI50 (UO-31): 1760 nM (inactive)
- GI50 (CCRF-CEM): 192 nM (active)
- GI50 (SF-295): 1660 nM (inactive)
- GI50 (SNB-75): 1740 nM (inactive)
- GI50 (M14): 1910 nM (inactive)
- GI50 (NCI/ADR-RES): 2210 nM (inactive)
- GI50 (Malme-3M): 1680 nM (inactive)
- GI50 (SR): 1250 nM (inactive)
- GI50 (OVCAR-8): 1820 nM (inactive)
- GI50 (HOP-92): 1680 nM (inactive)
- GI50 (DU-145): 1770 nM (inactive)
- GI50 (SN12C): 1840 nM (inactive)
- GI50 (786-0): 1800 nM (inactive)
- GI50 (OVCAR-3): 1550 nM (inactive)
- GI50 (LOX IMVI): 1700 nM (inactive)
- GI50 (MDA-MB-435): 1750 nM (inactive)
- GI50 (RPMI-8226): 1640 nM (inactive)
- GI50 (K562): 1370 nM (inactive)
- GI50 (Hs-578T): 2010 nM (inactive)
- GI50 (NCI-H460): 2100 nM (inactive)
- GI50 (U-251): 1630 nM (inactive)
- GI50 (MOLT-4): 171 nM (active)
- GI50 (ACHN): 1690 nM (inactive)
- GI50 (PC-3): 1810 nM (inactive)
- GI50 (RXF 393): 1680 nM (inactive)
- GI50 (OVCAR-4): 1060 nM (active)
